Consider two compounds from patent US20190292189A1, “LIM KINASE INHIBITORS” (VIRONGY, LLC, priority 2016, published 2019).

Structures are written as SMILES. Where two headings read alike, the source gives them in different places.

Broadly, the IC50 is the midpoint of a concentration-inhibition curve.

Data set [1] can be described thus: Microsomal stability, rat liver microsomes. It is filed as in vitro ADME. The settings on record: rat liver microsomes. (In general: Microsomes from liver hold many membrane-bound enzymes, among them those of drug oxidation.)
For another data set, the target named is P450 2C9 (Homo sapiens, UniProt P11712). Briefly: P450 inhibition at 10 μM. It is filed as in vitro ADME.
Sequence of P450 2C9 (P11712 whole entry): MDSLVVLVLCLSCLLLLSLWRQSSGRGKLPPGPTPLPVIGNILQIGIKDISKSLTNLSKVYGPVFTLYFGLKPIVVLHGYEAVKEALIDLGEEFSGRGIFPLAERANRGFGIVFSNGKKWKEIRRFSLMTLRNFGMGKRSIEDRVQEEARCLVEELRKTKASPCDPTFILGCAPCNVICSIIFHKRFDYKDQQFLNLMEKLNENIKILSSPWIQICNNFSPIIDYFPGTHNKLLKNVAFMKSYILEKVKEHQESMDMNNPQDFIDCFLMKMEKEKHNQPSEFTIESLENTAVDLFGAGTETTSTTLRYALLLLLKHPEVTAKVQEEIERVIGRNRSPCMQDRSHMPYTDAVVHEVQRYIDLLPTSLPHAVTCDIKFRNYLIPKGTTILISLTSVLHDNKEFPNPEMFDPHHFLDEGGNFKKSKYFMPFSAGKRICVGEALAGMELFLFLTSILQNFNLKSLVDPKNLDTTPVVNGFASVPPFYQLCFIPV
A further data set deals with ROCK-I (Homo sapiens, UniProt Q13464). Kind of data set: ROCK-I biochemical counter-screen. The conditions noted are these: Table 6; read-out: Biochemical Inhibition IC50 (nM) ROCK-I.
Sequence of ROCK-I (Q13464 whole entry, species assumed): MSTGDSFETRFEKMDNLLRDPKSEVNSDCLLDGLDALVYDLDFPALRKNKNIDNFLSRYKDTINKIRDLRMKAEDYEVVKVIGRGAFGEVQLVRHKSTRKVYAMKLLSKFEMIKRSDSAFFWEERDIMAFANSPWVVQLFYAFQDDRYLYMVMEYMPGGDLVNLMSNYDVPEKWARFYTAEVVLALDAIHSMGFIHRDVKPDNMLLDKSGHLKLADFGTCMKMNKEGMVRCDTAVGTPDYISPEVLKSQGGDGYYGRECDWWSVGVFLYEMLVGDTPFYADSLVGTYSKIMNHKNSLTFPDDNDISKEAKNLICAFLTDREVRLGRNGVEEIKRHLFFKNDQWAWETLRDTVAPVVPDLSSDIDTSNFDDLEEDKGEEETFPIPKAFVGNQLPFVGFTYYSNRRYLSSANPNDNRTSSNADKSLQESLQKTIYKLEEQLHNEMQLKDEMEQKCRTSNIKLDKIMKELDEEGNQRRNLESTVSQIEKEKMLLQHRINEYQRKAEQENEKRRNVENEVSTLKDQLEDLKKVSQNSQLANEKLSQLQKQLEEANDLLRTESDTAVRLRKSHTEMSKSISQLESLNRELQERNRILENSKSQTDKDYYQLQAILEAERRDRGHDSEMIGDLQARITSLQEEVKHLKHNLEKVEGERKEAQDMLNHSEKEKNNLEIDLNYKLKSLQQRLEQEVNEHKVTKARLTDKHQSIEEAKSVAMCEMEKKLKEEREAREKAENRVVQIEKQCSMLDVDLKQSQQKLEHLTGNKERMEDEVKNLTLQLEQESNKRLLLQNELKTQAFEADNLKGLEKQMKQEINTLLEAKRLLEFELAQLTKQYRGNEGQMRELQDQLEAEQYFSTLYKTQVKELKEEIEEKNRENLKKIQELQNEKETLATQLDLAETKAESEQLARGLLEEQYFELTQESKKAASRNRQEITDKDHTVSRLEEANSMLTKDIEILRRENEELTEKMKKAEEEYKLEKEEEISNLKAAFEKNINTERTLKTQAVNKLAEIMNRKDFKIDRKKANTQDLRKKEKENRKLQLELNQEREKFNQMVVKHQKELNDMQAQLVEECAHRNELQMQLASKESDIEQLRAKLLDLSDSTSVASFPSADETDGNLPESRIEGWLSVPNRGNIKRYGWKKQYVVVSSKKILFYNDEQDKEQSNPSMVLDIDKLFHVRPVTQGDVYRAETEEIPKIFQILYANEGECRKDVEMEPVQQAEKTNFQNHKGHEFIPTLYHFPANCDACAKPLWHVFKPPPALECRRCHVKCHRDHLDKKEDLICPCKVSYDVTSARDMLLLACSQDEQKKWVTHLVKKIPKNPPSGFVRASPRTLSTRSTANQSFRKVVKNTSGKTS
Data set [2] has as its system cofilin phosphorylation in A7r5 cells. Kind of data set: In-cell Western assay of cofilin phosphorylation in A7r5 cells. It is filed as cell-based. The settings on record: A7R5, A7r5 cells; read-out: Cofilin Phosphorylation In A7r5 Cells (IC50). The method, then: A7r5 (15,000 cells/well) were plated in a clear-bottomed Packard View black 96-well plate in 100 μl of 10% FBS DMEM:F12 medium and were allowed to attach overnight. The next day, the cells were serum starved in 1% FBS DMEM medium for 2 hr and then treated with the compounds for 1 hr. […] Next day, they were washed twice with PBS-0.1% Tween 20 (PBST) washing solution for 5 min each at room temperature on the orbital shaker, followed by one wash with Licor Blocking Buffer containing 0.05% Tween-20 for 5 min on the shaker at RT. The cells were then incubated with secondary antibody goat anti-rabbit IR800 (1:500 dilution) for 1 hr at RT in the dark (covered the plate with foil) in Licor blocking buffer-containing Tween-20. Following this, cells were washed twice with PBST for 5 min each at room temperature and then once with Licor blocking buffer-containing 0.05% Tween-20. The wells were then incubated with ToPro 3 stain (nucleic acid staining), diluted 1:4000 in Licor blocking buffer or Licor blocking buffer with 0.05% Tween-20 for 30 min at room temperature in the dark. Finally the plates were washed twice with PBS and analyzed using the Odyssey LICOR Infrared Scanner.

For a further data set, the target named is P450 3A4 (Homo sapiens, UniProt P08684). Kind of data set: P450 inhibition at 10 μM. It counts as in vitro ADME.
Sequence of P450 3A4 (P08684 whole entry): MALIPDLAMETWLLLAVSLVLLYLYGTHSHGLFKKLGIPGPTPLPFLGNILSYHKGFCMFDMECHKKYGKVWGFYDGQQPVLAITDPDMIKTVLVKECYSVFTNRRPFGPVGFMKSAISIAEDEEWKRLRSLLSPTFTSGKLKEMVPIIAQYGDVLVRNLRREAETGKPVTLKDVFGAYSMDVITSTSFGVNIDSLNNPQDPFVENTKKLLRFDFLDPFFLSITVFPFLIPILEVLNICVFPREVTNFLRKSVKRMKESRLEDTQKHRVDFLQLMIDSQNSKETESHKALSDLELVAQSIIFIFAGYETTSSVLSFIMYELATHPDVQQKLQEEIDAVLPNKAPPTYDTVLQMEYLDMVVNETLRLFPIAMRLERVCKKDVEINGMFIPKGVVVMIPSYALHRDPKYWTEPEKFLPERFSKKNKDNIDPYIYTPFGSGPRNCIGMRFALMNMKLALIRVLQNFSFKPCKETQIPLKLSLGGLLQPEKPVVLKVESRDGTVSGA
In data set [3] the test system is single-cycle HIV-1(Env) in CEM-SS T cells. It counts as cell-based. The conditions noted are these: all time points.
For a further data set, the system named is HIV-1(AD8). It counts as cell-based. The conditions noted are these: non-toxic dosages.
Another data set deals with phosphorylation of LIMK. Kind of data set: Western blot of LIMK phosphorylation in CEM-SS T cells. It is filed as cell-based, human. The method, then: (§1) FIG. 10. Chemical and Biochemical characterization of R10015. a, Chemical structure of R10015 and its docking into the crystal structure of LIMK1 (PDB ID 3S95, Chain A). […] CEM-SS T cells treated with R10015 (100 μM) for a time course, and the phosphorylation of cofilin, LIMK, and PAK1/2 were measured by Western Blot. Levels of each protein or GAPDH were also measured for loading control. d, R10015 inhibits Jurkat T cell chemotaxis in responding to SDF-1. e, R10015. f, R10015 inhibits chemotactic actin activity. Resting CD4 T cells were treated with R10015, and then exposed to SDF-1 for a time course. Actin polymerization were measured by FITC-phalloidin staining. g, the relative intensity of F-actin staining was also plotted.
(§2) One million cells were lysed in NuPAGE LDS Sample Buffer (Invitrogen), separated by SDS-PAGE, and then transferred onto nitrocellulose membranes (Invitrogen). The membranes were washed in TBST for 3 min and then blocked for 30 min at room temperature with Starting Block blocking buffer (Pierce). For probing with different antibodies, blots were incubated with rabbit anti-LIMK1 antibodies (Cell Signaling), with rabbit anti-p-coflin antibodies (Cell Signaling) or with a mouse anti-PAK1/2 antibody (Cell Signaling). These antibodies were diluted in 2.5% milk/TBST and rocked overnight at 4° C. […]
For orientation: In western blotting, separated proteins are transferred to a membrane and probed.

The subject of data set [4] is HIV-1 viral entry in CEM-SS T cells. Kind of data set: Viral entry assays (BlaM-Vpr, Nef-luciferase). It is filed as cell-based. The settings on record: HIV-1 Vpr-β-lactamase or Nef-luciferase tagged virions.
The test system of data set [5] is phosphorylation of PAK1/2. Kind of data set: Western blot of PAK1/2 phosphorylation in CEM-SS T cells. It counts as cell-based, human. The method, then:
as §1, §2

Data set [6] concerns cofilin serine 3 phosphorylation in CEM-SS T cells. Kind of data set: Western blot of cofilin serine 3 phosphorylation in CEM-SS T cells (time course). It is filed as cell-based, human. The settings on record: 100 μM. Here is the method:
as §1, §2

Data set [7] deals with VEEV (venezuelan equine encephalitis virus). It counts as cell-based. The conditions noted are these: Vero cells.
Data set [8] concerns the target T1, Limk1 (Homo sapiens, UniProt P53667). Kind of data set: Limk1 biochemical assay (Reaction Biology, 10-dose IC50). The arrangement: His; purchased Reaction Biology Corporation; host or cells: insect cells.
The subject of another data set is HIV-1(Env). Kind of data set: Virion release, p24 in supernatant. It counts as cell-based.
A further data set has as its system HIV-1(VSVG). It is filed as cell-based.
Data set [9] has as its target T1, Limk1. Briefly: Kinase profiling at 1 μM (Reaction Biology). It is filed as biochemical. The arrangement: His; purchased Reaction Biology Corporation; host or cells: insect cells. The settings on record: ATP 10 μM. Here is the method:
Profiling was carried out at Reaction Biology Corporation following a protocol described at its website: http://www.reactionbiology.com/webapps/site/. The % data were the average from two determinations. ATP concentration used: 10 μM; Staurosporine was used as the positive control.
Biochemical assays for all Limk inhibitors and kinase profiling were carried out in Reaction Biology Corporation and followed the protocols described on its website. […] Compounds were tested at 1 μM with duplicate experiments in profiling assays. […] Reactions were carried out at 10 μM ATP, 1 μM substrate cofilin, and 50 nM Limk1 (final concentrations).

The subject of the next data set is EBOV (Zaire ebolavirus). It is filed as cell-based. The settings on record: HFF-1 cells.
The subject of the next data set is HIV-1(NL4-3). It counts as cell-based. The conditions noted are these: non-toxic dosages.
The target in the next data set is T2, ERK2/MAPK1 (Homo sapiens, UniProt P28482).
T2 construct: purchased Reaction Biology Corporation
T2 sequence (P28482 whole entry): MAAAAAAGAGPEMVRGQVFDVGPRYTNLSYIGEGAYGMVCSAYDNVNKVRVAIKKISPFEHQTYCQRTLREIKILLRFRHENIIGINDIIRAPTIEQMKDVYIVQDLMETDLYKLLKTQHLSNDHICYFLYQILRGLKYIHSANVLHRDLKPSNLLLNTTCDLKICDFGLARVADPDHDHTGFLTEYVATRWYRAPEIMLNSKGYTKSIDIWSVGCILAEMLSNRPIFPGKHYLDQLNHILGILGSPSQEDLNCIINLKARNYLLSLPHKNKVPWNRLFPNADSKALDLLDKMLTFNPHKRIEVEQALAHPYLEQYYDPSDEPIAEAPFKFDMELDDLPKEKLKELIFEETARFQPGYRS
Briefly: Kinase profiling at 1 μM (Reaction Biology). It is filed as biochemical. The settings on record: ATP 10 μM. In a few lines:
(§3)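 Each kinase reaction is set up with 10 μM ATP and the test compound at 1 μM, alongside a staurosporine positive control. Two independent determinations are run, and their average gives the % figure.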

Another data set addresses T3, WEE1 (Homo sapiens, UniProt P30291).
T3 construct: purchased Reaction Biology Corporation
Kind of data set: Kinase profiling at 1 μM (Reaction Biology). The conditions noted are these: ATP 10 μM. It is filed as biochemical. The essentials:
as §3

T1 sequence (P53667 285-638): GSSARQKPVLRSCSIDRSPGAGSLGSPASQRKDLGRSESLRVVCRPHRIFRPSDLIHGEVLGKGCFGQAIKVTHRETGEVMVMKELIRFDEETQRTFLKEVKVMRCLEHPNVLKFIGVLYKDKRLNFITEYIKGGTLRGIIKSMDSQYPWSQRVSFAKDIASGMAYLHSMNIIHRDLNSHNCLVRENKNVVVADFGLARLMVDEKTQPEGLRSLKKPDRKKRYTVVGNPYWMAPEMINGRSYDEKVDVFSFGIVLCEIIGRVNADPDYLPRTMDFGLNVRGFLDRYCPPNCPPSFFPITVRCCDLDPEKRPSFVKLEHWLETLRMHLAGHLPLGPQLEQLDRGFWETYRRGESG
T3 sequence (P30291 whole entry): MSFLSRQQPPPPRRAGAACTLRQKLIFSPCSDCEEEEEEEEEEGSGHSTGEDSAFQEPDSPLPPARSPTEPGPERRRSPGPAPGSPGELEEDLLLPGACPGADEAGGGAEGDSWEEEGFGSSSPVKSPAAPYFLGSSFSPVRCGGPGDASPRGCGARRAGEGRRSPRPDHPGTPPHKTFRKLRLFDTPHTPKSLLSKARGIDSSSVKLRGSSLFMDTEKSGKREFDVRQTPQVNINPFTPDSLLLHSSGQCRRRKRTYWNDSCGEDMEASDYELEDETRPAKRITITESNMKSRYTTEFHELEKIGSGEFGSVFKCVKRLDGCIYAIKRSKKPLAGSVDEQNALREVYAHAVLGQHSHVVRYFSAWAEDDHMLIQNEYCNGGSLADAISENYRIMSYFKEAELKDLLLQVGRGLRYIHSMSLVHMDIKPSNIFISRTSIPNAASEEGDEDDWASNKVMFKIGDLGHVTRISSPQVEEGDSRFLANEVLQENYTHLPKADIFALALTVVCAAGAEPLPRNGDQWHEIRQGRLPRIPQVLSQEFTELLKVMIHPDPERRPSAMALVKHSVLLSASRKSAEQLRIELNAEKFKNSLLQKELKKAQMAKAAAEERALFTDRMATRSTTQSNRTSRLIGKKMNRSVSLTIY

On to `Cc1c[nH]c2ncnc(-c3ccc(NC(=O)N(CCO)c4ccccc4)cc3)c12` [Compound 18b, 1-(2-Hydroxyethyl)-3-(4-(5-methyl-7H-pyrrolo[2,3-d]pyrimidin-4-yl)phenyl)-1-phenylurea], for which the “Microsomal Stability t1/2 (min) Rat” value in data set [1] turned out to be 30 min. The “P450 % inh. at 10 μM 2C9” value on P450 2C9 was 14%. The results for the IC50 (at ROCK-I; in [2]) were 5540 nM and 0.47 µM, respectively. The “P450 % inh. at 10 μM 3A4” value on P450 3A4 is 13%.
In the case of `COC(=O)c1ccc2[nH]c(C3CCN(c4ncnc5[nH]cc(Cl)c45)CC3)nc2c1` [Compound R10015, Methyl 2-(1-(5-chloro-7H-pyrrolo[2,3-d]pyrimidin-4-yl)piperidin-4-yl)-1Hbenzo[d]imidazole-5-carboxylate], the “viral DNA synthesis” value in data set [3] was “inhibited”. The “R5 viral infection of memory CD4 T cells” value with HIV-1(AD8) is “inhibition”. For the same compound, the “phosphorylation of LIMK” value with phosphorylation of LIMK is “did not inhibit”. Besides, the viral entry entry in data set [4] is recorded as “did not significantly inhibit”. Also, in [5], the “phosphorylation of PAK1/2” value was “not inhibited”. In addition, in [6], the “cofilin serine 3 phosphorylation” value is “drastic inhibition”. In addition, the VEEV infection result in data set [7] was “inhibited”. The IC50 at Limk1 [8] (Table 8, read-out: LIMK1 IC50) was 0.038 ± 0.005 µM; at Limk1 [8] (read-out: Limk1 IC50), about 0.038 µM. For the same compound, in the data set on HIV-1(Env), the viral release result is given as “inhibited”. In the data set with HIV-1(VSVG), the “inhibition of VSVG pseudotyped HIV” value is given as “did not inhibit”. Further, the activity at 1 µM on Limk1 [9] worked out at 6.4%; at ERK2/MAPK1, 87.2%; on WEE1, 97.2%. In the data set with EBOV (Zaire ebolavirus), the EBOV infection entry is “inhibited”. For the same compound, the “X4 viral infection of blood resting CD4 T cells” value with HIV-1(NL4-3) is on record as “inhibition”.
